The text below walks through data of patent publication US12319684B2 (Sanford Burnham Prebys Medical Discovery Institute, priority 2014, dated 2025).

Bounds are passed on as bounds.

Experiment [1] concerns the target T1, human apelin receptor (APJ, AGTRL-1, APLNR) (Homo sapiens, UniProt P35414).
T1 construct: host or cells: Chinese hamster ovary cells
T1 sequence (P35414 1-380): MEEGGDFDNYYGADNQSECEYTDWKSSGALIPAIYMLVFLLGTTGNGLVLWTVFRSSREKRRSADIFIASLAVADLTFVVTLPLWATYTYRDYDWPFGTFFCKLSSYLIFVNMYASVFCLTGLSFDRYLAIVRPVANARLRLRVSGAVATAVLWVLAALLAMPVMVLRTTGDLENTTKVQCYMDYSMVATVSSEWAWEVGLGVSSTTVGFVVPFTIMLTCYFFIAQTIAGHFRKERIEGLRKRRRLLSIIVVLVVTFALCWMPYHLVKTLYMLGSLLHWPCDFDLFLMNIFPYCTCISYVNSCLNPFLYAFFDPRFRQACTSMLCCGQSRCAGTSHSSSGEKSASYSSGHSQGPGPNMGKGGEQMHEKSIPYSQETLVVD
Briefly: APJ cAMP cell-based assay (forskolin-stimulated CHO cells, enzyme fragment complementation). The settings on record: for EC50: CHO cells expressing human APJ, forskolin-stimulated, 0.5 h incubation, 50% of control (apelin-13, 1 nM) response, read-out: APJ cAMP EC50; for Emax: CHO, 0.5 h, percentage of the maximal apelin-13 response at 1 nM (control), read-out: APJ cAMP % resp (efficacy).

Experiment [2] concerns abdominal aortic aneurysms. The conditions noted are these: mouse model of abdominal aortic aneurysms; cited from earlier work.
A further experiment deals with vasopressin release. The settings on record: intracerebral injection; cited from earlier work.

For orientation: EC50 means the concentration at which the effect is half-maximal. On to `COc1ccccc1-n1c(-c2cccs2)cnc1OCc1csc(-c2ccccc2)n1` [Example 80], for which, in experiment [1], the EC50 is more than 10000 nM and the Emax is 31%.
For `COc1ccccc1-n1c(OCc2coc(-c3ccccc3)n2)nnc1-c1cccs1` [Example 81, 4-(2-Methoxy-phenyl)-3-(2-phenyl-oxazol-4-ylmethoxy)-5-thiophen-2-yl-4H-[1,2,4]triazole] the same measures were 238 nM and 101%.
For `COc1ccccc1-n1c(OCc2ccccc2)nnc1-c1cccs1` [Example 82, 3-(benzyloxy)-4-(2-methoxyphenyl)-5-(thiophen-2-yl)-4H-1,2,4-triazole] the same measures were more than 10000 nM and 52%.
The corresponding values for `COc1ccccc1-n1c(OCc2cc(=O)n3cc(C)ccc3n2)nnc1-c1cccs1` [Example 83, 2-(((4-(2-methoxyphenyl)-5-(thiophen-2-yl)-4H-1,2,4-triazol-3-yl)oxy)methyl)-7-methyl-4H-pyrido[1,2-a]pyrimidin-4-one] are 45 nM and 52%.
`COc1ccccc1-n1c(OCc2csc(-c3ccccc3)n2)nnc1-c1cccs1` [Example 84]: in experiment [1], the EC50 came to 680 nM and the Emax is 109%.
As to `COc1ccccc1-n1c(NCc2csc(-c3ccc(C)cc3)n2)nnc1-c1cccs1` [Example 86, [4-(2-Methoxy-phenyl)-5-thiophen-2-yl-4H-[1,2,4]triazol-3-yl]-(2-p-tolyl-thiazol-4-ylmethyl)-amine], in experiment [1], the 50% effective concentration (EC50) was more than 10000 nM.
The same measure, in the same setting: under `COc1ccccc1-n1c(NCc2coc(-c3ccc(C)cc3)n2)nnc1-c1cccs1` [Example 87, [4-(2-Methoxy-phenyl)-5-thiophen-2-yl-4H-[1,2,4]triazol-3-yl]-(2-p-tolyl-oxazol-4-ylmethyl)-amine] stands more than 10000 nM.
In the case of apelin, the reduction of aneurysm in experiment [2] is recorded as 50%. Moreover, in the experiment on vasopressin release, the “reduction in plasma vasopressin concentrations” value is listed as 40%.
